In patent US20220127337A1 (priority 2020, published 2022):

Legend:
[1] = system: CoV-2 ORF3a-mediated activation of caspase 1; format: cell-based, human
SARS-CoV = details: Lu W et al. Proc Natl Acad Sci USA 103, 12540-12545 (2006); cited from earlier work

In the case of [Ba+2] [barium], the “CoV-2 ORF3a-mediated activation of caspase 1” value [1] is given as “able to curb CoV-2 ORF3a-mediated activation of caspase 1” and the “release of SARS-CoV virions” value (SARS-CoV) is given as “block the release of SARS-CoV virions”.
